# Laboratory results published in ChEMBL document CHEMBL1201862, “PubChem BioAssay data set” (2004).
#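 Tested at 5 concentrations; 48 h exposure; 96-well plates; endpoints linearly interpolated, else capped at highest concentration. GI50 = concentration required for 50% inhibition of growth.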 Active and inactive are the calls of the source. Rule as the data show it: active = GI50 up to about 1.1 µM and inactive = higher.
# Key:
# Assay in all cases: NCI anticancer screen, dose series, 48 h
# RPMI-8226 = system: RPMI-8226
# SF-539 = system: SF-539
# UO-31 = system: UO-31
# OVCAR-4 = system: OVCAR-4
# NCI-H226 = system: NCI-H226
# M14 = system: M14
# COLO 205 = system: COLO 205
# SF-295 = system: SF-295
# HCT-15 = system: HCT-15
# IGROV-1 = system: IGROV-1
# HCC 2998 = system: HCC 2998
# ACHN = system: ACHN
# NCI-H460 = system: NCI-H460
# UACC-257 = system: UACC-257
# U-251 = system: U-251
# CCRF-CEM = system: CCRF-CEM
# 786-0 = system: 786-0
# KM12 = system: KM12
# TK-10 = system: TK-10
# OVCAR-5 = system: OVCAR-5
# A498 = system: A498
# UACC-62 = system: UACC-62
# SW-620 = system: SW-620
# BT-549 = system: BT-549
# MOLT-4 = system: MOLT-4
# T47D = system: T47D
# PC-3 = system: PC-3
# MDA-N = system: MDA-N
# MDA-MB-231 = system: MDA-MB-231
# SN12C = system: SN12C
# NCI/ADR-RES = system: NCI/ADR-RES
# NCI-H23 = system: NCI-H23
# LOX IMVI = system: LOX IMVI
# K562 = system: K562
# DU-145 = system: DU-145
# MDA-MB-435 = system: MDA-MB-435
# SF-268 = system: SF-268
# MCF7 = system: MCF7
# OVCAR-3 = system: OVCAR-3
# Hs-578T = system: Hs-578T
# Malme-3M = system: Malme-3M
# SK-MEL-2 = system: SK-MEL-2
# NCI-H522 = system: NCI-H522
# HCT-116 = system: HCT-116
# HOP-62 = system: HOP-62
# EKVX = system: EKVX
# CAKI-1 = system: CAKI-1
# SK-MEL-5 = system: SK-MEL-5
# SNB-75 = system: SNB-75
# SK-MEL-28 = system: SK-MEL-28
# OVCAR-8 = system: OVCAR-8
# HL-60 = system: HL-60
# HT-29 = system: HT-29
# A549 = system: A549
# SK-OV-3 = system: SK-OV-3
# SR = system: SR
# HOP-92 = system: HOP-92
# SNB-19 = system: SNB-19
# RXF 393 = system: RXF 393
compound,measurement,setting,value
CC(=O)O[C@H]1C#C/C=C\C#CC[C@@H]2C(=O)N(C(=O)OC(C)(C)C)[C@@H]12,GI50,RPMI-8226,16.2 µM (inactive)
same,GI50,SF-539,1.67 µM (inactive)
same,GI50,UO-31,2.91 µM (inactive)
same,GI50,OVCAR-4,> 100 µM (inactive)
same,GI50,NCI-H226,24.3 µM (inactive)
same,GI50,M14,28.3 µM (inactive)
same,GI50,COLO 205,22.2 µM (inactive)
same,GI50,SF-295,21.3 µM (inactive)
same,GI50,HCT-15,13.6 µM
same,GI50,IGROV-1,3.45 µM (inactive)
same,GI50,HCC 2998,19.5 µM (inactive)
same,GI50,ACHN,4 µM (inactive)
same,GI50,NCI-H460,0.25 µM (active)
same,GI50,UACC-257,28.4 µM (inactive)
same,GI50,U-251,17.7 µM (inactive)
same,GI50,CCRF-CEM,1.52 µM (inactive)
same,GI50,786-0,9.93 µM (inactive)
same,GI50,KM12,53.7 µM (inactive)
same,GI50,TK-10,> 55.1 µM (inactive)
same,GI50,OVCAR-5,> 100 µM (inactive)
same,GI50,A498,33.4 µM (inactive)
same,GI50,UACC-62,14.8 µM (inactive)
same,GI50,SW-620,48.8 µM (inactive)
same,GI50,BT-549,33.5 µM (inactive)
same,GI50,MOLT-4,0.199 µM (active)
same,GI50,T47D,32.7 µM (inactive)
same,GI50,PC-3,> 67.3 µM (inactive)
same,GI50,MDA-N,39.4 µM (inactive)
same,GI50,MDA-MB-231,55.3 µM (inactive)
same,GI50,SN12C,18.8 µM (inactive)
same,GI50,NCI/ADR-RES,15.7 µM (inactive)
same,GI50,NCI-H23,12.6 µM (inactive)
same,GI50,LOX IMVI,13.1 µM (inactive)
same,GI50,K562,25.7 µM (inactive)
same,GI50,DU-145,19.9 µM (inactive)
same,GI50,MDA-MB-435,71.6 µM (inactive)
same,GI50,SF-268,16.8 µM (inactive)
same,GI50,MCF7,2.34 µM (inactive)
same,GI50,OVCAR-3,41.1 µM (inactive)
same,GI50,Hs-578T,39.6 µM (inactive)
same,GI50,Malme-3M,7.87 µM (inactive)
same,GI50,SK-MEL-2,41.2 µM (inactive)
same,GI50,NCI-H522,12.8 µM (inactive)
same,GI50,HCT-116,17.4 µM (inactive)
same,GI50,HOP-62,7.11 µM (inactive)
same,GI50,EKVX,85.7 µM (inactive)
same,GI50,CAKI-1,6.46 µM (inactive)
same,GI50,SK-MEL-5,18.2 µM (inactive)
same,GI50,SNB-75,21.5 µM (inactive)
same,GI50,SK-MEL-28,71.4 µM (inactive)
same,GI50,OVCAR-8,14.5 µM (inactive)
same,GI50,HL-60,2.45 µM (inactive)
same,GI50,HT-29,36.1 µM (inactive)
same,GI50,A549,16.6 µM (inactive)
same,GI50,SK-OV-3,62.4 µM (inactive)
same,GI50,SR,24 µM (inactive)
same,GI50,HOP-92,26.9 µM (inactive)
same,GI50,SNB-19,18.7 µM (inactive)
same,GI50,RXF 393,15.4 µM (inactive)
